Test results published in article doi:10.1101/2023.04.10.536218v2, “A novel and highly specific Forssman antigen-binding protein from sheep polyomavirus” (biorxiv, 2023).

Target: ShPyV VP1
Details: glycan coupled to BSA by reductive amination and immobilised on CM5 chip; multivalent (avidity); pH 7.4, 25 °C; kinetic fit

## CC(=O)N[C@H]1[C@@H](O[C@H]2[C@@H](O)[C@@H](CO)O[C@@H](O[C@H]3[C@@H](O)[C@@H](CO)O[C@H](O[C@@H]4[C@H](O)[C@@H](O)[C@H](O[C@H]5[C@H](O)[C@@H](O)C(O)O[C@@H]5CO)O[C@@H]4CO)[C@@H]3O)[C@@H]2NC(C)=O)O[C@H](CO)[C@H](O)[C@@H]1O (stereo partly shown) [FP, Forssman pentaose]
  Kd: 3.6 nM
